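Method: 48-hour compound exposure of cells in 96-well plates, five concentrations, linear interpolation of endpoints. GI50 marks 50% less growth. TGI: total growth inhibition.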
What was measured:
Assay in all cases: DTP human tumour cell line panel, 48 h
EKVX NSCLC = tested on: EKVX NSCLC
CCRF-CEM leukemia = tested on: CCRF-CEM leukemia
OVCAR-4 ovarian = tested on: OVCAR-4 ovarian
OVCAR-3 ovarian = tested on: OVCAR-3 ovarian
HCC-2998 colon = tested on: HCC-2998 colon
SK-OV-3 ovarian = tested on: SK-OV-3 ovarian
HOP-92 NSCLC = tested on: HOP-92 NSCLC
SNB-75 CNS = tested on: SNB-75 CNS
NCI-H522 lung = tested on: NCI-H522 lung
HCT-15 colon = tested on: HCT-15 colon

SMILES	TGI (EKVX NSCLC)	TGI (CCRF-CEM leukemia)	TGI (OVCAR-4 ovarian)	TGI (OVCAR-3 ovarian)	TGI (HCC-2998 colon)	TGI (SK-OV-3 ovarian)	TGI (HOP-92 NSCLC)	TGI (SNB-75 CNS)	TGI (NCI-H522 lung)	TGI (HCT-15 colon)	GI50 (EKVX NSCLC)	GI50 (CCRF-CEM leukemia)	GI50 (NCI-H522 lung)	GI50 (HCT-15 colon)	GI50 (OVCAR-4 ovarian)	GI50 (OVCAR-3 ovarian)	GI50 (HCC-2998 colon)	GI50 (HOP-92 NSCLC)	GI50 (SNB-75 CNS)	GI50 (SK-OV-3 ovarian)
O=C1CCc2ccc(O)c(c2)Oc2ccc(cc2)[C@@H]2O[C@@H]2CO1	> 100 µM	> 100 µM	> 100 µM	> 100 µM	> 100 µM	> 100 µM	88.2 µM	> 100 µM	–	–	–	–	–	–	–	–	–	–	–	–
CCSCCCC(=O)O	> 100 µM	> 100 µM	> 100 µM	> 100 µM	> 100 µM	> 100 µM	–	> 100 µM	> 100 µM	> 100 µM	–	–	–	–	–	–	–	–	–	–
O=C(O)CCSC(=O)Nc1ccccc1	> 100 µM	> 100 µM	> 100 µM	> 100 µM	> 100 µM	–	–	–	–	> 100 µM	–	–	–	–	–	–	–	–	–	–
Cc1cn2c(/C=C3\C(=O)N(C)c4ccc(Cl)cc43)c(C)nc2s1	> 100 µM	10.1 µM	91 µM	6.93 µM	6.18 µM	–	45.4 µM	7.32 µM	7.76 µM	> 100 µM	9.9 µM	2740 nM	2760 nM	4.03 µM	6.18 µM	2550 nM	2610 nM	6.3 µM	2.52 µM	–
C=C1C(O)C2CC(C)(C)C(=O)C2=C(CC(C)C)C12CC2 (configuration not stated)	> 100 µM	> 100 µM	> 100 µM	> 100 µM	> 100 µM	> 100 µM	> 100 µM	–	> 100 µM	> 100 µM	> 100 µM	98100 nM	85000 nM	> 100 µM	> 100 µM	> 100000 nM	> 100000 nM	> 100 µM	–	> 100 µM
CN(C)CCNC(=O)c1cccc2c1nc(-c1ccncc1)c1ccccc12	10 µM	> 100 µM	15.6 µM	30.4 µM	16.7 µM	24.7 µM	9.77 µM	15.8 µM	–	13.4 µM	–	–	–	–	–	–	–	–	–	–
NCCCNc1nc2ccccc2c2c(=O)c3cc(F)cc(Cl)c3sc12	3.07 µM	4.58 µM	3.63 µM	3.25 µM	3.68 µM	–	11.8 µM	2.96 µM	3.68 µM	3.01 µM	1.56 µM	1950 nM	1760 nM	1.57 µM	1.82 µM	1780 nM	1790 nM	1.87 µM	1.54 µM	–
COc1cc(NCCC2CCCCN2)c2ncccc2c1OC (configuration not stated)	48.6 µM	–	2.86 µM	5.01 µM	31.8 µM	38.9 µM	–	19.5 µM	9.05 µM	85.5 µM	15.6 µM	–	2410 nM	21.2 µM	1.5 µM	2130 nM	16900 nM	–	3.85 µM	20.3 µM
O=C(Nc1cc2cc([N+](=O)[O-])ccc2oc1=O)c1cccs1	> 100 µM	78.3 µM	> 100 µM	> 100 µM	> 100 µM	–	> 100 µM	16.5 µM	84.7 µM	–	–	–	–	–	–	–	–	–	–	–
CC(=O)O[C@H]1CC[C@]2(C)C3C(=O)C[C@]4(C)[C@@H](C(C)CCC(=O)O)CC[C@@]4(C)[C@@H]3CC[C@H]2C1(C)C (some centres not stated)	36.8 µM	–	> 50 µM	> 50 µM	–	> 50 µM	> 50 µM	> 50 µM	> 50 µM	46.9 µM	10.2 µM	–	> 50000 nM	11.7 µM	40.4 µM	25900 nM	–	36.8 µM	42.7 µM	21.4 µM
CCN(CC)CCCC(C)Nc1ccnc(/C=C/c2ccc(Cl)cc2)c1 (configuration not stated)	15.6 µM	> 19.7 µM	–	4.98 µM	4.03 µM	10.7 µM	3.12 µM	4.5 µM	3.81 µM	6.35 µM	–	–	–	–	–	–	–	–	–	–
O=C(Nc1ccc(Cl)cc1)N1CCN(c2ccc3nncn3n2)CC1	–	–	> 100 µM	> 100 µM	> 100 µM	> 100 µM	> 100 µM	> 100 µM	–	> 100 µM	–	–	–	30.2 µM	51.6 µM	62400 nM	81800 nM	31.7 µM	> 100 µM	> 100 µM
CC(=N\O)/C(C)=N/O.CC(=N\O)/C(C)=N/O.[Fe].[NH2-].c1c[nH]cn1	> 100 µM	–	> 100 µM	> 100 µM	–	> 100 µM	> 100 µM	> 100 µM	> 100 µM	> 100 µM	> 100 µM	–	> 100000 nM	> 100 µM	> 100 µM	> 100000 nM	–	28.6 µM	> 100 µM	> 100 µM
CC(=O)[CH-]C(=O)c1ccccc1.CC(=O)[CH-]C(=O)c1ccccc1.CC(=O)[CH-]C(=O)c1ccccc1.[Br-].[Zr+4]	> 100 µM	> 100 µM	> 100 µM	> 100 µM	–	> 100 µM	61.4 µM	> 100 µM	> 100 µM	> 100 µM	57.5 µM	22300 nM	93200 nM	89.7 µM	82.1 µM	48100 nM	–	18.6 µM	34 µM	74.8 µM
Cn1cc(-c2nc(-c3cn(C)c4ncccc34)cs2)c2ccccc21	> 100 µM	> 100 µM	–	1.71 µM	> 100 µM	5.31 µM	9.39 µM	4.83 µM	11.9 µM	> 100 µM	1.77 µM	2980 nM	402 nM	1.49 µM	–	414 nM	2050 nM	1.68 µM	1.44 µM	1.98 µM
Nc1cc(N)c2nc(-c3ccccc3)c(NCc3ccc(Cl)c(Cl)c3)nc2c1	38.7 µM	1.83 µM	> 100 µM	6.98 µM	–	35.9 µM	–	–	4.91 µM	> 100 µM	10.9 µM	133 nM	2050 nM	4.64 µM	11.7 µM	2640 nM	–	–	–	18.5 µM
Nc1ncnc2c1ncn2CCCCC(=O)O	> 100 µM	–	> 100 µM	> 100 µM	> 100 µM	> 100 µM	> 100 µM	> 100 µM	> 100 µM	> 100 µM	–	–	–	–	–	–	–	–	–	–
N#CC1=C(c2ccccc2)OC2(N)OC(c3ccccc3)=C(C#N)C12C#N (configuration not stated)	> 100 µM	> 100 µM	> 100 µM	> 100 µM	> 100 µM	> 100 µM	–	> 100 µM	–	> 100 µM	–	–	–	–	–	–	–	–	–	–

Source: PubChem BioAssay (NCI)
